According to PMC4467398, “Preclinical antitumor activity of ST7612AA1: a new oral thiol-based histone deacetylase (HDAC) inhibitor” (Oncotarget, 2014):

Columns and labels:
HCT116 tumor xenografts = experiment: Western blot of tumor xenografts after oral ST7612AA1; type: in vivo, nude mice; details: xenografts collected 24 h after the last oral administration; 80 mg/10 mL/kg qdx5/wx3w
Experimental: In order to assess the in vivo effect of ST7612AA1 on the acetylation degree of α-tubulin and histones, and on the expression of other key proteins, HCT116 tumor xenografts (3 samples/group) were excised at different times after the last treatment, and then total protein lysates were prepared through the homogenization of tumor samples in lysis buffer containing 0.5% NP-40, supplemented with 10 μg/mL of protease inhibitor cocktail (Sigma Chemical Co., St. Louis, MO, USA). Determination of the protein concentration and Western Blotting analysis were finally performed as above described for the in vitro experiments. The antibodies used are listed in Supplementary Table 2.

[1] = test system: Ovarian cancer SKOV-3 xenograft; experiment: In vivo xenograft model, oral ST7612AA1; parameters: species or system nude mice; details: 60 mg/10 mL/kg oral, Qdx5/wx4w
Experimental: (§1) Experiments on solid tumor and acute leukemia in vivo models were carried out at Sigma-Tau (Rome, Italy) using female athymic nude mice, 5-6 weeks-old (Harlan Laboratories, Udine, IT). Mice were maintained in laminar flow rooms with constant temperature and humidity in according to the NIH guidelines. The following human tumor xenograft models were used for antitumor activity studies: HCT116 derived from colon carcinoma), MV4;11 from acute myeloid leukaemia (AML), SKOV-3 from ovarian carcinoma, and NCI-H1975 from non-small cell lung cancer (NSCLC). Exponentially growing tumor cells were s.c. inoculated (5×10^6/mouse) in the right flank of nude mice. Groups of eight mice/group were employed to assess antitumor activity. MDA-MB436 breast carcinoma (3×10^6 cells/0.1 mL of M199/Matrigel GFR 50:50, vol/vol solution) was inoculated in mammary fat pad (mfp). Drug treatments were started from 3 to 11 days after tumor injection, depending on the tumor growth of the xenografted cancer model. ST7612AA1 was given daily for five days per week (qdx5/w). Tumor growth was followed by measurements of tumor diameters with a Vernier caliper. Tumor volume (TV) was calculated using the formula: TV (mm^3) = [d^2 x D]/2, where d and D are the shortest and the longest diameter, respectively. The efficacy of the drug treatment was assessed as: TV inhibition percentage (TVI%) in treated versus control mice, calculated as: TVI%=100-(mean TV treated/mean TV control x100). When tumors reached a volume of 500-1000 mm^3, mice were sacrificed by cervical dislocation. To examine the possible toxicity of treatment, body weight was recorded throughout the study. BWL% (body weight loss) was calculated as 100 – (mean BWdayx/mean BWday1x100), where day 1 is the first day of treatment and day x is any day after (maximum BWL%). DT as doubling time of control tumors was also evaluated.

[2] = test system: Acute myeloid leukemia MV4;11 xenograft; experiment: In vivo xenograft model, oral ST7612AA1; parameters: species or system nude mice; details: 60 mg/10 mL/kg oral, Qdx5/wx3w
Experimental: as §1

[3] = test system: Colon cancer HCT-116 xenograft; experiment: In vivo xenograft model, oral ST7612AA1; parameters: species or system nude mice; details: 60 mg/10 mL/kg oral, Qdx5/wx3w
Experimental: as §1

[4] = test system: NSCLC NCI-H1975 xenograft; experiment: In vivo xenograft model, oral ST7612AA1; parameters: species or system nude mice; details: 60 mg/10 mL/kg oral, Qdx5/wx2w
Experimental: as §1

[5] = test system: Breast cancer MDA-MB436 xenograft; experiment: In vivo xenograft model, oral ST7612AA1; parameters: species or system nude mice; details: 60 mg/10 mL/kg oral, Qdx5/wx4w
Experimental: as §1

Ovarian cancer A2780 = experiment: In vitro proliferation assay (sulphorodamine B); type: cell-based; details: Homo sapiens, 72 h, mean ± S.E.M.
[6] = test system: acetylation of alpha-tubulin in NCI-H460 NSCLC cells; experiment: Western blot with densitometry, tubulin acetylation; type: cell-based, human; details: for Acetyl tub./tubulin: NCI-H460, vehicle 0,341
Experimental: For assessing the in vitro effect of ST7612AA1 on acetylation of α-tubulin and histones, NSCLC cells were treated with the test compound at various concentrations (dose-response curve). SAHA 5 μM was used as reference inhibitor. Protein extraction, separation and immunoblotting were performed as previously described. Immunoreactive bands were finally subjected to densitometry analysis by a phosphoimaging system (STORM, Molecular Dynamics), and then the IC50 values were calculated by the “ALLFIT” computer program. The antibodies used are listed in Supplementary Table 2.

[7] = test system: Chronic myeloid leukemia K562; experiment: In vitro proliferation assay (sulphorodamine B); type: cell-based; details: Homo sapiens, 72 h, mean ± S.E.M.
Breast cancer MDA-MB436 = experiment: In vitro proliferation assay (sulphorodamine B); type: cell-based; details: Homo sapiens, MDA-MB-436, 72 h, mean ± S.E.M.
lymphoma cell lines = experiment: Detection of apoptotic cells (Annexin V-FITC, flow cytometry); type: cell-based, human; details: 250 nM, 72 hrs; eight lymphoma cell lines
Experimental: Apoptosis was assessed, on cells treated with DMSO or different doses of ST7612AA1, by Annexin V-FITC apoptosis detection kit (BD Biosciences), according to the manufacturer's recommendations, on a FACScan flow cytometer (BD Biosciences).

Colon cancer HCT116 = experiment: In vitro proliferation assay (sulphorodamine B); type: cell-based; details: Homo sapiens, HCT-116, 72 h, mean ± S.E.M.
Breast cancer MCF-7 = experiment: In vitro proliferation assay; type: cell-based; details: Homo sapiens, MCF7, 72 h, mean ± S.E.M.
Experimental: Anti-proliferative activity was first assessed on a panel of cell lines derived from solid tumors and hematological cancers and then on a large panel of cell lines derived from mature B-cell lymphomas. […] Lymphoma cells were seeded in 96-wells tissue culture plates in complete medium and were exposed to increasing concentrations of ST7612AA1 for 48 or 72 h; the anti-proliferative activity was assessed using 3-(4,5-dimethylthiazol-2-yl)-2,5-diphenyltetrazolium bromide (MTT). The drug potency was evaluated by means of the “ALLFIT” computer program and defined as IC50 (drug concentration required for 50% inhibition of cell survival).

Breast cancer MDA-MB231 = experiment: In vitro proliferation assay (sulphorodamine B); type: cell-based; details: Homo sapiens, MDA-MB-231, 72 h, mean ± S.E.M.
[8] = test system: Acute myeloid leukemia U937; experiment: In vitro proliferation assay (sulphorodamine B); type: cell-based; details: Homo sapiens, U-937, 72 h, mean ± S.E.M.
NSCLC NCI-H460 = experiment: In vitro proliferation assay (sulphorodamine B); type: cell-based; details: Homo sapiens, 72 h, mean ± S.E.M.

CC(=O)SCCCCC[C@H](NC(=O)[C@H]1CCC(=O)N1)C(=O)Nc1ccccc1 [ST7612AA1]
HSP70 levels (HCT116 tumor xenografts): significant increase
HSP90 protein levels (HCT116 tumor xenografts): dramatic decrease
acetylated α-tubulin levels (HCT116 tumor xenografts): increased levels
pan H3 acetylation (HCT116 tumor xenografts): strong induction
BWL% max ([1]; maximum body weight loss): 1%
Lethal toxicity ([1]; mice dead from toxicity/total): 0/8
BWL% max ([2]; maximum body weight loss): 4%
Lethal toxicity ([2]; mice dead from toxicity/total): 0/8
BWL% max ([3]; maximum body weight loss): 1%
Lethal toxicity ([3]; mice dead from toxicity/total): 0/8
BWL% max ([4]; maximum body weight loss): 4%
Lethal toxicity ([4]; mice dead from toxicity/total): 0/8
BWL% max ([5]; maximum body weight loss): 4%
Lethal toxicity ([5]; mice dead from toxicity/total): 0/8
IC50 (Ovarian cancer A2780): 43 ± 10 nM
Acetyl tub./tubulin ([6]; 0,2 µM): 1,181
Acetyl tub./tubulin ([6]; 0,04 µM): 0,649
Acetyl tub./tubulin ([6]; 1 µM): 2,012
Acetyl tub./tubulin ([6]; 0,008 µM): 0,588
IC50 ([6]; Homo sapiens, NCI-H460, 3 h exposure, Western blot densitometry, read-out: IC50 for increasing the acetylation of tubulin): 200 nM
IC50 [7]: 190 ± 20 nM
IC50 (Breast cancer MDA-MB436): 180 ± 10 nM
apoptosis (Annexin V positive cells) (lymphoma cell lines): moderate apoptosis in three out of eight lymphoma cell lines
IC50 (Colon cancer HCT116): 75 ± 10 nM
IC50 (Breast cancer MCF-7): 190 nM
IC50 (Breast cancer MDA-MB231): 230 nM
IC50 [8]: 49 nM
IC50 (NSCLC NCI-H460): 66 ± 10 nM
